Values of other authors as cited in patent publication US20240166971A1, “CONTACT LENS TREATING SOLUTION” (Bausch + Lomb Ireland Limited, priority 2022, published 2024).

Tested on: Gram-positive bacteria
Settings: known property

CCCCC(CC)COCC(O)CO (stereo not shown) [EHOPD, 3-[(2-ethylhexyl)oxy]-1,2-propanediol]
antimicrobial activity: exhibit antimicrobial activity
